Measurements from patent US4183931A, “2-Ketoalkyl-4(3H)-quinazolinones” (Research Corporation, priority 1977, dated 1980).

Columns and labels:
[1] = NINCDS Subcutaneous Pentylenetetrazol (Metrazol) Seizure Threshold Test (scMet); format: in vivo, mice; details: for minimal effective dose: sc, read-out: scMet: dosage level that elicited protection
Procedure: (§1) 1. Neurological Activity Tests. […] Compounds were evaluated for anticonvulsant activity in two seizure models, the maximal electroshock seizure (MES) test and the subcutaneous pentylenetetrazol (Metrazol) seizure threshold (scMet) test.
Subcutaneous Pentylenetetrazol (Metrazol) Seizure Threshold Test (scMet) produces threshold (clonic) seizures. Pentylenetetrazol is administered subcutaneously as a threshold 0.5% solution (in 0.9% sodium chloride) in a loose fold of skin on the back of the neck in a dose of 85 mg/kg. […] Metrazol is given 10 minutes before the beginning of the test to allow for the delay in onset of Metrazol action. The animal is observed for 30 minutes. Failure to observe even a threshold seizure (a single episode of clonic spasms at least 5 seconds in duration) is defined as protection and indicates anticonvulsant activity in the test compound. These two methods of seizure provocation reliably elicit well-characterizied seizure phenomena.
(§2) The ability of a compound to prevent maximal electroshock seizures is believed to correlate with its ability to prevent the spread of seizure discharge through neural tissue. Activity against maximal electroshock seizures is thought to indicate potential efficacy in the treatment of major motor (grand mal) seizures. […] Selective action in the test is believed to indicate potential efficacy against absence (petit mal) seizures.
(§3) As described earlier, the MES, scMet and Rotorod tests were performed one-half hour and four hours after administration of each compound.
(§4) In the Secondary Evaluation, median effective doses (ED50) are determined in the MES, scMet and Rotorod assays using the procedures defined in Pharmacology, 95, 99-113 (1949).
(§5) Separate groups of animals are used for each time period. The times of peak toxic and anticonvulsant effect are taken from the resulting graph of percent of animals responding vs. time, and the determinations of median effective doses are performed at those times.

[2] = NINCDS rotorod ataxia test (minimal neurotoxicity); format: in vivo, mice
Procedure: 1. Neurological Activity Tests. The biological testing program is designed to evaluate the following four aspects of drug action: (1) the existence and specificity of anticonvulsant activity; (2) the toxicity, particularly to the central nervous system; and, if the results of (1) and (2) are favorable, (3) the potency and protective index, a comparison between toxic and effective dose and (4) the time course of activity. Compounds were evaluated for anticonvulsant activity in two seizure models, the maximal electroshock seizure (MES) test and the subcutaneous pentylenetetrazol (Metrazol) seizure threshold (scMet) test.
Central nervous system toxicity was evaluated in the rotorod ataxia test. This test is designed to detect minimal neurotoxicity. The animal is placed on a 1-inch diameter knurled plastic rod rotating at 6 rpm. Normal mice can remain indefinitely on a rod rotating at this speed. Neurological deficit is defined as the failure of the animal to remain on the rod for at least 1 minute. This test has a clear end-point, is quantifiable and correlates well with the clinical assessment of minimal toxicity.
Specific anticonvulsant evaluations performed by NINCDS using MES, scMet and Rotorod assays are presented in Tables III & IV for fourteen new compounds as well as several known compounds. Table III centers attention on 2-substituted-3-o-tolyl-4-(3H)-quinazolinones while Table IV includes the findings for various other 2,3-disubstituted-4(3H)-quinazolinones. As described earlier, the MES, scMet and Rotorod tests were performed one-half hour and four hours after administration of each compound. The tables identify the dosage level that elicited a positive result, such as protection against MES and scMet induced seizures, or loss of balance on the rotorod.
In the Secondary Evaluation, median effective doses (ED50) are determined in the MES, scMet and Rotorod assays using the procedures defined in Pharmacology, 95, 99-113 (1949). In addition, each compound's anticonvulsant activity and neurotoxicity over time are determined by measuring the effect of an intraperitoneally administered estimated median effective dose on maximal electroshock seizures and rotorod performance at intervals of 1/2, 1, 2, 3, 4, 6 and 8 hours.
as §5

[3] = NINCDS Maximal Electroshock Seizure Test (MES); format: in vivo, mice; details: for minimal effective dose: read-out: MES: dosage level that elicited protection
Procedure: as §1
The Maximal Electroshock Seizure Test was performed according to the method described by Swinyard and coworkers,* wherein a drop of 0.9% saline is instilled in each eye prior to application of corneal electrodes. Seizures are elicited with a 50 Hz alternating current of 50 mA (5 to 7 times that necessary to elicit minimal electroshock seizures) delivered for 0.2 sec via corneal electrodes. This stimulus will produce a maximal seizure in all normal mice. The maximal seizure typically consists of a short period of initial tonic flexion and a prolonged period of hind limb tonic extension, followed by terminal clonus. The seizure lasts about 22 seconds. Abolition of the hind limb tonic extensor component of the seizure is defined as protection and indicates anticonvulsant activity in the test compound.
as §2, §3, §4, §5

[4] = Neuropharmacological Profile (NPP): general CNS observational screen (depression, righting reflex, ataxia)
Procedure: Representative compounds according to the present invention were tested for central nervous system activity by Pharmakon Laboratories of Scranton, Pennsylvania. The battery of general observational procedures used is referred to herein as a Neuropharmacological Profile (NPP). Additionally, representative compounds were tested in the Anticonvulsant Screening Project of the National Institutes of Neurological and Communicative Disorders and Stroke (NINCDS) at the University of Utah under the direction of Dr. Ewart A. Swinyard.
(§6) The procedures for the determination of a neuropharmacological profile involved white male mice of the Carworth Farm Strain CF-1 weighing 18 to 22 grams. […] Intraperitoneal injections were administered in logarithmic progression and sequentially. The dose levels employed routinely were 10, 30, 100 and 300 mg/kg, using four male mice at each dose level. Since this test was conducted in a sequential manner, the first does administered was at 300 mg/kg. […] Approximately thirty-eight signs and symptoms of pharmacological activity can be identified.
(§7) The animals were observed continously for one hour and, if no signs of pharmacological or toxicological activity were present at the end of the first hour, they were intermittently checked for activity every fifteen minutes thereafter for two consecutive hours. […] The observation period began immediately following the injection and the animals were then continuously observed for three hours and intermittently checked thereafter for forty-eight hours. The animals were observed and signs and symptoms of pharmacological activity were recorded continuously until no further symptoms developed and until the symptoms that appeared were no longer present. […] In such instances, the animals were observed beyond this period until they returned to normal. Routinely, the number of animals alive at the end of the forty-eight hour observation period was recorded and the LD50 estimated.
The animals are free to move about for evaluation of spatial orientation, alertness and spontaneous motor activity.
(§8) Since this is a general CNS screening procedure, only peak effects were recorded. Certain measures of behavior and neurological deficit were scored in terms of intensity of effect, while most others were determined on an all or none basis. Thus, in scoring measures which were normally present, e.g., spontaneous activity and skin color, an increase in score from 4 to 8 was used to denote stimulation or enhancement of skin color, whereas a decrease in score from 4 to 0 indicated depression or cyanosis. For scoring measures normally absent, e.g., depression, righting reflex and ataxia, activity was reflected as an increase in score from 0 to 8. The 0 to 8 scale was rounded off so that the actual ratings are only 0, 2, 4, 6 and 8. The compounds were also evaluated for anticonvulsant activity by using the maximal electroshock seizure (MES) test. In the MES study, four mice were dosed intraperitoneally at 100 mg/kg and challenged thirty minutes later with 50 mA, 0.2 second duration of electroshock. A protection ratio (number of mice protected from tonic extension .div. number of mice tested) was then established.
At the termination of the test, the results were recorded and tabulated.
(§9) Scores for behavioral symptoms, including depression, righting reflex and ataxia, are the actual numbers reported. Protection against MES is reported as a percentage. Since four animals were involved in this test, the findings are 0% for none protected, 25% for one out of four, etc. […] In order to maintain reasonable uniformity in the reporting of results, each entry corresponds to a dosage level of 100 mg/kg. Any variations from that dosage are indicated.

[5] = NPP lethality (estimated LD50); details: mouse, in vivo, ip
Procedure: as §6, §7, §9

[6] = NPP maximal electroshock seizure (MES) protection; format: in vivo, white male mice of the Carworth Farm Strain CF-1; details: Mus musculus, ip, 0.5 h; at 100 mg/kg i.p., four mice, 30 min after dosing
Procedure: as §6, §8, §9

[7] = after 4 hr (value in parentheses)
[8] = Mus musculus, after 4 hr (value in parentheses)
[9] = at 100 mg/kg, i.p., mice, score 0-8
[10] = at 30 mg/kg (value in parentheses), i.p., mice, score 0-8
[11] = Mus musculus, ip, secondary evaluation, at time of peak effect

Compound | minimal effective dose ([1]; Mus musculus, after 0.5 hr) | minimal effective dose [1, 8] | CNS Depression [4, 9] | LD50 at 48 h [5] | responders at 100 mg/kg [6] | CNS Depression [4, 10] | also measured
Cc1ccccc1-n1c(CC(O)c2ccccc2)nc2ccccc2c1=O (stereo not drawn) [CHOHC6 H5, 2-(2-Hydroxy-2-phenylethyl)-3-o-tolyl-4(3H)-quinazolinone] | 300 mg/kg | – | – | – | – | – | Rotorod: dosage level that elicited loss of balance [2, 7]: 300 mg/kg
CCc1nc2ccccc2c(=O)n1-c1ccccc1C [CH3, 2-Ethyl-3-o-tolyl-4(3H)-quinazolinone, reference compound] | 100 mg/kg | 300 mg/kg | – | – | – | – | minimal effective dose ([3]; Mus musculus, ip, after 0.5 hr): 100 mg/kg; minimal effective dose ([3]; Mus musculus, ip, after 4 hr (value in parentheses)): 300 mg/kg; Rotorod: dosage level that elicited loss of balance ([2]; after 0.5 hr): 100 mg/kg; Rotorod: dosage level that elicited loss of balance [2, 7]: 300 mg/kg
Cc1ccccc1-n1c(CC(=O)c2ccccn2)nc2ccccc2c1=O [IIIb, 2-[2-Oxo-2-(2-pyridyl)ethyl]-3-o-tolyl-4-(3H)-quinazolinone] | 300 mg/kg | – | 2 | > 562 mg/kg | 0% | – | –
O=C(Cc1nc2ccccc2c(=O)n1-c1ccccc1)c1cccnc1 [IVg, 2-[2-Oxo-2-(3-pyridyl)ethyl]-3-phenyl-4(3H)-quinazolinone] | 100 mg/kg | – | 2 | 562 mg/kg | 0% | – | minimal effective dose ([3]; Mus musculus, ip, after 0.5 hr): 100 mg/kg
Cc1ccc(-n2c(C)nc3ccccc3c2=O)cc1 [p-tolyl H, 2-methyl-3-p-tolyl-4(3H)-quinazolinone, reference compound] | – | – | 8 | > 562 mg/kg | 100% | 4 | Ataxia [4, 9]: 8
CCOC(=O)C(=O)Cc1nc2ccccc2c(=O)n1-c1ccccc1C [IIIm, 2-Ethoxallylmethyl-3-o-tolyl-4(3H)-quinazolinone] | – | – | 4 | > 562 mg/kg | 0% | – | –
Cc1ccccc1-n1c(CC(=O)c2ccc(NC(=O)C(F)(F)F)cc2)nc2ccccc2c1=O [IIIl, 2-[2-Oxo-2-(p-trifluoroacetamidophenyl)ethyl]-3-o-tolyl-4(3H)-quinazolinone] | 300 mg/kg | – | – | – | – | – | Rotorod: dosage level that elicited loss of balance ([2]; after 0.5 hr): 300 mg/kg
CC(=O)Cc1nc2ccccc2c(=O)n1-c1ccccc1C [IIIn, 2-Acetonyl-3-o-tolyl-4(3H)-quinazolinone] | – | 300 mg/kg | 8 | > 562 mg/kg | 0% | 4 | behavioral activity compared with methaqualone ([4]; NPP summary): equal to methaqualone in affecting behavioral activity; muscle relaxant properties ([4]; NPP summary): possible muscle relaxant properties not exhibited by methaqualone itself
Cc1ccccc1-n1c(CC(=O)c2cccnc2)nc2ccccc2c1=O [IIIc, 2-[2-Oxo-2-(3-pyridyl)ethyl]-3-o-tolyl-4(3H)-quinazolinone] | – | 300 mg/kg | 6 | 562 mg/kg | 100% | 4 | Ataxia [4, 9]: 8
Cc1ccccc1-n1c(CC(=O)c2ccncc2)nc2ccccc2c1=O [IIId, 2-[2-Oxo-2-(4-pyridyl)ethyl]-3-o-tolyl-4(3H)-quinazolinone] | 30 mg/kg | 300 mg/kg | 0 | > 562 mg/kg | 0% | – | Depression ([4]; at 300 mg/kg, i.p., mice, score 0-8): 4; minimal effective dose ([3]; Mus musculus, ip, after 0.5 hr): 100 mg/kg; ED50 [3, 11]: 74 mg/kg; MES protective index compared with methaqualone ([3]; secondary evaluation): approximately five-fold higher; PI MES (Protective Index = TD50/ED50) ([3]; secondary evaluation): 5.94; potency against electroshock-induced (MES) seizures compared with methaqualone ([3]; secondary evaluation): less potent than methaqualone; ED50 [1, 11]: 75 mg/kg; PI scMet (Protective Index = TD50/ED50) ([1]; secondary evaluation): 5.86; potency against scMet seizures compared with methaqualone ([1]; secondary evaluation): less potent than methaqualone; scMet protective index compared with methaqualone ([1]; secondary evaluation): approximately five-fold higher; TD50 ([2]; mouse, in vivo, ip, secondary evaluation, at time of peak effect): 440 mg/kg
Cc1ccccc1-n1c(CC(=O)c2ccccc2)nc2ccccc2c1=O [IIIg, 2-(2-Oxo-2-phenylethyl)-3-o-tolyl-4(3H)-quinazolinone] | – | – | 4 | > 562 mg/kg | 0% | 4 | –
O=C(Cc1nc2ccccc2c(=O)n1-c1ccccc1Cl)c1cccnc1 [IVc, 2-[2-Oxo-2-(3-pyridyl)ethyl]-3-o-chlorophenyl-4(3H)-quinazolinone] | 300 mg/kg | 300 mg/kg | 4 | 562 mg/kg | 25% | – | Rotorod: dosage level that elicited loss of balance [2, 7]: 300 mg/kg
